# Data taken from patent publication US20140011889A1, “Resveratrol-Containing Compositions and Methods of Use for Cardiac-Related Diseases” (Resveratrol Partners, LLC, priority 2010, published 2014).
# Columns and labels:
# [1] = test system: isolated perfused rat hearts; assay: Isolated working rat heart, ischemia/reperfusion, cardiac function (Example 6); type: in vivo, Sprague-Dawley rats
# Protocol: Isolated working heart preparation. After completing the feeding protocol, the animals were anesthetized with sodium pentobarbital (80 mg/kg, intraperitoneally) (Abbott Laboratories, North Chicago, Ill., USA), and heparin sodium (500 U/kg, intravenously) (Elkins-Sinn Inc., Cherry Hill, N.J., USA) was used as an anticoagulant. After deep anesthesia, the hearts were excised, the aorta was cannulated, and the hearts were perfused through the aorta in Langendorff mode at a constant (100 cm of water) perfusion pressure at 37° C. with Krebs-Henseleit bicarbonate for a 5 min washout period as described previously. Ray et al. (1999) Free Rad Biol Med 27:160-9.
# During the washout period, the left atrium was cannulated, and the Langendorff preparation was switched to the working mode for 10 min with a left atrial filling pressure of 17 cm H2O; the aortic afterload pressure was set to 100 cm of water. At the end of 10 min, the baseline cardiac function such as heart rate (HR, beats/min), aortic flow (AF, ml/min), coronary flow (CF, ml/min), left ventricular developed pressure (LVDP, mmHg) and first derivative of developed pressure (LVdp/dt, mmHg/sec) were recorded. Later, 30 min of global ischemia was initiated by clamping the left atrial inflow and aortic outflow lines at a point close to their origins. After 30 min, reperfusion was initiated for 120 min by unclamping the atrial inflow and aortic outflow lines. The first 10 min of reperfusion was in Langendorff mode to avoid ventricular fibrillation, and then the hearts were switched to an anterograde working mode. Ray et al. (1999) Free Rad Biol Med 27:160-9.
# Cardiac function assessment. After 10 min of the working mode, baseline parameters were recorded. To monitor the recovery of the heart, the left ventricular cardiac function was recorded after 60 and 120 min of reperfusion. Six rats were present in each group. […] Coronary flow was measured by timed collection of the coronary effluent dripping from the heart. During the entire experiment, the aortic pressure was monitored using a Gould P23XL pressure transducer (Gould Instrument Systems Inc., Valley View, Ohio, USA) connected to the side arm of the aortic cannula; the signal was amplified using a Gould 6600 series signal conditioner (Gould Instrument Systems Inc.). […] The heart rate, left ventricular developed pressure, and the first derivative of developed pressure were all calculated from the continuously generated pressure signal.
# At the end of the 21 days, the animals were sacrificed, their hearts were excised and isolated, and ischemia was induced for 30 min by terminating the coronary flow (as described in the methods section). This was then followed by 2 h of reperfusion in the working mode; during the reperfusion left ventricular function was monitored.
# [2] = test system: isolated perfused rat hearts; assay: Myocardial infarct size, TTC staining (Example 6); type: in vivo, Sprague-Dawley rats
# Protocol: Infarct size estimation. Infarct size was measured using the triphenyl tetrazolium chloride (TTC) staining method. Malik et al. […] After two hours of reperfusion, 40 ml of 1% (w/v) solution of TTC in phosphate buffer was infused into the aortic cannula, and the heart samples were stored at −70° C. for subsequent analysis. Sections (0.8 mm) of frozen heart were fixed in 2% paraformaldehyde, placed between two cover slips and digitally imaged using a Microtek ScanMaker 600z (Microtek, USA). To quantitate the areas of infarct in pixels, a standard National Institutes of Health image program was used. The infarct size was quantified and expressed in pixels. At the end of each experiment the hearts were either subjected to TTC staining to determine infarct size or TUNEL staining to detect apoptosis.
# [3] = test system: miRNA expression, rat heart; assay: Global miRNA expression profiling (TLDA array) in ischemia-reperfused rat heart; conditions: for miR-21 expression, up: vs basal level control heart
# Protocol: Global miRNA expression profiling in ischemia-reperfused rat heart. MicroRNA profiles were analyzed by TLDA array specific for 586 miRNA and five endogeneous control for rat.
# Male Sprague-Dawley rats weighing between 250 and 300 g were fed ad libitum regular rat chow with free access to water until the start of the experimental procedure.
# Micro RNA isolation and cDNA preparation. Total RNA from rat heart samples were isolated using Trizol reagent (Invitrogen) and further purified using mirVANA miRNA isolation kit (Ambion).
# Profiling of miRNA expression. miRNA expression profiling were carried out using quantitative real-time PCR method by TaqManH Gene Signature Rodent Arrays on a 384 well micro fluidic card in 7900HT Realtime PCR machine (Applied Biosystem, Foster City) according to manufacturer's recommendation. Each miRNA were quantified by two specific amplicon primers and one specific probe. […] In addition, each array contains six control assays—five carefully selected candidate endogenous control assays, and one negative control assay.
# Analyses of miRNA gene expression data. Realtime PCR data expressed as Ct values from array A and B were combined using R script (provided by GeneSpring Informatics Support Team) and processed using GeneSpringGX 11.0.2 software (Agilent Technologies, Santa Clara).
# reactive oxygen species = assay: Intracellular ROS by CM-H2DCFDA fluorescence in I/R heart; type: in vivo, rat; conditions: IR heart, FIG. 19
# Protocol: The dye was injected intravenously, prior to induction of ischemia/reperfusion, and at the end of the experiments, the level of fluorescence was determined for the generation of ROS by measuring the fluorescent oxidation product CM-DCF in the cytosol, at an excitation wavelength of 480 nm and an emission wavelength of 520 nm.
# [4] = test system: biological processes (GO), cardiac tissue; assay: Biological processes (GO) affected by altered gene expression in cardiac tissue; type: in vivo, mice
smiles,measurement,setting,value
"Oc1ccc(/C=C/c2cc(O)cc(O)c2)cc1 [resveratrol, 3,4′,5-trihydroxy-trans-stilbene]",aortic flow and developed pressure,"[1]; 100 mg/kg, gavage 21 days",no aortic flow or developed pressure
same,"cardioprotection (aortic flow, LVDP, maximum LVdP/dt)","[1]; 2.5 and 25 mg/kg, gavage 21 days, 30 min ischemia, 2 h reperfusion",conferred cardioprotection
same,"ventricular function (aortic flow, LVDP, maximum LVdP/dt)","[1]; above 25 mg/kg, gavage 21 days",ventricular function was deteriorated
same,hormetic action (dose-response of cardioprotection),"[1]; rat, doses up to 100 mg/kg",displayed hormetic action
same,myocardial infarct size,[2]; 2.5 and 25 mg/kg,significantly reduced
same,myocardial infarct size,[2]; above 50 mg/kg,significant increased
same,"principal component analysis of miRNA expression, IR treated samples",[3]; FIG. 15C,remarkably similar to BL vehicle sample
same,"miR-21 expression, up",[3]; IR,61.5 fold
same,"miR-21 expression, up",[3]; basal level,391.4 fold
same,miRNAs whose up or down regulation in IR control was reversed in the opposite direction,"[3]; of the 25 miRNAs of Table 11, both treatments",11
same,intracellular ROS concentration compared to control,reactive oxygen species,lowered
same,"genes changed, GO: 0006596 Polyamine Biosynthetic Process",[4]; 5 genes in series,2
same,"genes changed, GO: 0006625 Protein Targeting To Peroxisome",[4]; 5 genes in series,2
same,"genes changed, GO: 0006983 ER Overload Response",[4]; 5 genes in series,2
same,"genes changed, GO: 0006353 Transcription Termination",[4]; 6 genes in series,2
same,"genes changed, GO: 0045351 Interferon Type I Biosynthetic Process",[4]; 6 genes in series,2
same,"genes changed, GO: 0001958 Endochondral Ossification",[4]; 8 genes in series,2
same,"genes changed, GO: 0007091 Mitotic Metaphase/Anaphase Transition",[4]; 8 genes in series,2
same,"genes changed, GO: 0007143 Female Meiosis",[4]; 8 genes in series,2
same,"genes changed, GO: 0045577 Regulation Of B Cell Differentiation",[4]; 8 genes in series,2
same,"genes changed, GO: 0046330 Positive Regulation Of JNK Cascade",[4]; 8 genes in series,2
same,"genes changed, GO: 0006825 Copper Ion Transport",[4]; 9 genes in series,3
same,"genes changed, GO: 0033554 Cellular Response To Stress",[4]; 14 genes in series,3
same,"genes changed, GO: 0006888 ER To Golgi Vesicle-Mediated Transport",[4]; 16 genes in series,3
same,"genes changed, GO: 0006919 Caspase Activation",[4]; 16 genes in series,3
same,"genes changed, GO: 0000723 Telomere Maintenance",[4]; 17 genes in series,3
same,"genes changed, GO: 0030041 Actin Filament Polymerization",[4]; 17 genes in series,3
same,"genes changed, GO: 0043280 Positive Regulation Of Caspase Activity",[4]; 17 genes in series,3
same,"genes changed, GO: 0051016 Barbed-End Actin Filament Capping",[4]; 17 genes in series,3
same,"genes changed, GO: 0008299 Isoprenoid Biosynthetic Process",[4]; 19 genes in series,3
same,"genes changed, GO: 0006446 Regulation Of Translational Initiation",[4]; 20 genes in series,4
same,"genes changed, GO: 0043281 Regulation Of Caspase Activity",[4]; 27 genes in series,5
same,"genes changed, GO: 0008064 Regulation Of Actin Polymerization And/Or Depolymerization",[4]; 30 genes in series,4
same,"genes changed, GO: 0050673 Epithelial Cell Proliferation",[4]; 30 genes in series,4
same,"genes changed, GO: 0005977 Glycogen Metabolic Process",[4]; 31 genes in series,7
same,"genes changed, GO: 0030832 Regulation Of Actin Filament Length",[4]; 31 genes in series,4
same,"genes changed, GO: 0051258 Protein Polymerization",[4]; 32 genes in series,6
same,"genes changed, GO: 0006112 Energy Reserve Metabolic Process",[4]; 35 genes in series,7
same,"genes changed, GO: 0048193 Golgi Vesicle Transport",[4]; 37 genes in series,6
same,"genes changed, GO: 0008154 Actin Polymerization And/Or Depolymerization",[4]; 39 genes in series,6
same,"genes changed, GO: 0006413 Translational Initiation",[4]; 40 genes in series,6
same,"genes changed, GO: 0043085 Positive Regulation Of Enzyme Activity",[4]; 40 genes in series,5
same,"genes changed, GO: 0045454 Cell Redox Homeostasis",[4]; 40 genes in series,6
same,"genes changed, GO: 0005976 Polysaccharide Metabolic Process",[4]; 42 genes in series,9
same,"genes changed, GO: 0007018 Microtubule-Based Movement",[4]; 72 genes in series,9
same,"genes changed, GO: 0007178 Transmembrane Receptor Protein Serine/Threonine Kinase Signaling Pathway",[4]; 75 genes in series,7
same,"genes changed, GO: 0006511 Ubiquitin-Dependent Protein Catabolic Process",[4]; 109 genes in series,9
same,"genes changed, GO: 0019941 Modification-Dependent Protein Catabolic Process",[4]; 111 genes in series,9
same,"genes changed, GO: 0006457 Protein Folding",[4]; 124 genes in series,13
same,"genes changed, GO: 0007017 Microtubule-Based Process",[4]; 155 genes in series,12
same,"genes changed, GO: 0006605 Protein Targeting",[4]; 161 genes in series,12
same,"genes changed, GO: 0008380 RNA Splicing",[4]; 162 genes in series,12
same,"genes changed, GO: 0006281 DNA Repair",[4]; 178 genes in series,13
same,"genes changed, GO: 0006974 Response To DNA Damage Stimulus",[4]; 217 genes in series,15
same,"genes changed, GO: 0044262 Cellular Carbohydrate Metabolic Process",[4]; 221 genes in series,18
same,"genes changed, GO: 0050790 Regulation Of Catalytic Activity",[4]; 241 genes in series,21
same,"genes changed, GO: 0005975 Carbohydrate Metabolic Process",[4]; 316 genes in series,21
same,"genes changed, GO: 0007264 Small Gtpase Mediated Signal Transduction",[4]; 320 genes in series,22
same,"genes changed, GO: 0006412 Translation",[4]; 338 genes in series,25
same,"genes changed, GO: 0006512 Ubiquitin Cycle",[4]; 356 genes in series,27
same,"genes changed, GO: 0006886 Intracellular Protein Transport",[4]; 357 genes in series,26
same,"genes changed, GO: 0006091 Generation Of Precursor Metabolites And Energy",[4]; 390 genes in series,24
same,"genes changed, GO: 0007010 Cytoskeleton Organization And Biogenesis",[4]; 403 genes in series,26
same,"genes changed, GO: 0046907 Intracellular Transport",[4]; 523 genes in series,43
same,"genes changed, GO: 0009059 Macromolecule Biosynthetic Process",[4]; 525 genes in series,35
same,"genes changed, GO: 0015031 Protein Transport",[4]; 581 genes in series,38
same,"genes changed, GO: 0045184 Establishment Of Protein Localization",[4]; 610 genes in series,38
same,"genes changed, GO: 0051649 Establishment Of Cellular Localization",[4]; 653 genes in series,45
same,"genes changed, GO: 0008104 Protein Localization",[4]; 663 genes in series,38
same,"genes changed, GO: 0044249 Cellular Biosynthetic Process",[4]; 710 genes in series,45
same,"genes changed, GO: 0006996 Organelle Organization And Biogenesis",[4]; 897 genes in series,53
same,"genes changed, GO: 0009058 Biosynthetic Process",[4]; 979 genes in series,60
same,"share of the 220 biological processes with affected genes, calorie restricted mice",[4]; mouse cardiac tissue,failed to affect any genes in any of these processes
